How the values were obtained:
Details in all cases: MEP vs vehicle
[1] = In vivo kinetics of FA incorporation and turnover in brain phospholipids (intravenous radiotracer infusion, kinetic model); parameters: species or system rat
Outline: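 Rats were given vehicle or MEP 10 mg/kg via tail vein, then radiolabelled fatty acid was infused intravenously for 5 min to steady-state plasma radioactivity while the animals were unanesthetized, with serial jugular blood sampling. They were killed by head-focused microwave irradiation, and brain incorporation was modelled from plasma unesterified fatty acid and acyl-CoA pools.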

[2] = Brain acyl-CoA concentrations (LC-MS/MS) in vehicle- or MEP-treated rats; type: in vivo, rat
Method: At 15 weeks of age, 16 rats were randomized to receive vehicle or 10 mg/kg MEP via tail vein catheter as described above. Fifteen minutes post injection, rats were euthanized by head-focused high energy microwave irradiation (13.5 kW for 1.6 s) and brains were excised and sagittally cut for unesterified FAs/lipid mediators and acyl-CoA analyses as described below. Brain hemispheres were homogenized in ethanol to yield a concentration of 100 mg tissue/ml. The unesterified FAs from 100 mg of brain tissue were isolated. The unesterified FA bands were collected and extracted twice from silica by hexane:isopropanol (3:2 by volume) with 5.5% water. Extracted unesterified FAs were dried down with nitrogen gas and added with 100 μl of freshly made pentafluorobenzylbromide (PFB) cocktail consisting of acetonitrile:N,N-diisopropylethylamine:PFB (1 ml:100 μl:10 μl by volume). The mixtures were shaken for 15 min and dried down with nitrogen gas. FA-PFB esters (FAPEs) were reconstituted in 100 μl hexane for GC-MS analysis as described below.
Long chain acyl-CoA was extracted from the brains of vehicle- and MEP-treated rats as well as the brains of radiotracer-infused rats using a modified affinity chromatography method ([40]). Brains were homogenized by a probe sonicator in isopropanol:25 mM KH2PO4:acetonitrile (1:1:2 by volume) with 10 nmol of added internal standard, heptadecanoyl-CoA (17:0-CoA). Subsequently, protein was precipitated from the homogenate by the addition of saturated (NH4)2SO4. […]
Acyl-CoA concentrations were detected using an Agilent 1200 Binary LC pump (Agilent Technologies, Wilmington, DE) equipped with a Zorbax SB-Phenyl column (3 × 50 mm, 3.5 μm spherical size; Chromatographic Specialties, Brockville, ON, Canada). […] Peaks were identified and quantified by mass transitions, compound specific parameters, and standard curves of authentic acyl-CoA standards (Avanti, Alabaster, AL) (supplementary Fig. I). Concentrations were corrected for percent recovery of heptadecanoyl-CoA and expressed as nmol/g brain.

[3] = Brain total phospholipid and phospholipid class FA concentrations (GC-FID); type: in vivo, rat
Text: Total lipids from one brain hemisphere and from plasma were extracted by the method of Folch, Lees, and Sloane Stanley ([39]). Isolation of various neutral lipid and phospholipid classes from the total lipid extract was previously described by Chen, Liu, and Bazinet ([6]).
Brain FA concentrations from total and phospholipid classes were quantified as described by Chen, Liu, and Bazinet ([6]).

## CCCCCCCCCCCCCCC1(C(=O)OC)CO1 (stereo not shown) [MEP, methyl-2-tetradecylglycidate, reference compound]
[1]
  fold increase in esterification of 14C-palmitate into diacylglycerol: 2 fold
  fold increase in esterification of 14C-palmitate into triacylglycerol: 2 fold
  fold increase of t1/2 of EPA in ChoGpl: 1.7 fold
  fold increase of t1/2 of EPA-synthesized DHA in ChoGpl: 4.3 fold
  fold increase of t1/2 of EPA-synthesized DHA in EtnGpl: 2.5 fold
  fold increase of t1/2 of EPA-synthesized DHA in brain total phospholipids: 4.2 fold
  fold increase of t1/2 of EPA-synthesized n-3 DPA in PtdSer: 1.6 fold
  reduction of FFA of DHA in brain total phospholipids: 24 % per day
[2]
  increase in brain α-linolenoyl-CoA concentration: 49%
  reduction in brain DHA-CoA: 26%
  reduction in brain EPA-CoA: 16%
[3]
  reduction in ARA from PtdSer: 8%
  reduction in linoleate from EtnGpl: 9%

Source: article PMC3735939, “The low levels of eicosapentaenoic acid in rat brain phospholipids are maintained via multiple redundant mechanisms” (Journal of Lipid Research, 2013)
